US20070155827A1, “USE OF BENZO-FUSED HETEROCYCLE SULFAMIDE DERIVATIVES FOR THE TREATMENT OF DEPRESSION” (priority 2005, published 2007)
Like-named read-outs stand apart in the source and are kept apart here.

Key:
Male Sprague Dawley rats = assay: Forced Swim Test (Acute), FST; assay type: in vivo
Method: The Forced Swim test (FST) is a commonly used procedure to screen compounds for possible antidepressant properties. This test is also known as the behavioral despair test. Rodents placed in […] tanks filled with water present a wide variety of escape or immobility behaviors. Antidepressant drugs from different classes markedly increase escape behaviors and/or decrease latency or duration of immobility.
Venlafaxine and desipramine were dissolved in water. All drugs and their vehicles were administered orally (p.o.) by gavage in a volume of 5 mL/kg.
Male Sprague Dawley rats (140 to 160 g) from Charles River Laboratories Wilmington, Mass. were used. The animals went through a five-day quarantine period before being subjected to the experimental procedure.
Animals were housed in groups of four in plastic cages at an ambient temperature of 21° C. to 23° C. with an automated 12 hour light/dark cycle and access to water and commercial rodent food ad libitum. Animals were not handled more than for the routine bedding change prior to pre-test swim session.
Each experiment consisted of seven treatment groups with n=4 animals per group. A total of 28 animals per experiment were used. Two consecutive experiments (1 and 2, 3 and 4, and 5 and 6) were exact replicas of each other. […] One treatment group of n=4 animals in each experiment was a vehicle treated group. […] In experiments 5 and 6 the effects of venlafaxine and maprotyline at 12 mg/kg, 30 mg/kg, and 60 mg/kg were tested.
The basic apparatus consisted of a cylinder (46 cm tall×˜20 cm diameter) filled with water to 30 cm deep, at a temperature of 25±1° C. The automated version of the FST was used to perform the experiments. Plumbing for automatic filling and emptying water connected the four cylinders. Cylinders were placed in the dividing chambers 25 cm wide to separate animals visually. Each 5-minute experimental session was videotaped and analyzed in real time by computer software (Clever Systems, Inc.) for four animals at a time. The immobility, swimming, climbing and escape times were recorded by the software. The four activities are defined as follow. Immobility: the animal floats motionlessly or makes only those movements necessary to keep its head above water; Climb: the animal vigorously moves vertically while scratching the wall around the cylinder; Swim: the animal moves horizontally around in the cylinder more than necessary to keep its head above water; and Escape: sum of all vigorous active movements.
The ability of a test compound to decrease the duration or frequency of immobility, or changes in swimming, climbing and escape times, was measured using the FST procedure described above. […] The analysis of the results in the studies described was focused on the immobility time during 5-minute test session.
There were two swim sessions in each experiment. First, a pre-test swim session for 15 minutes was performed. Following 48 hours later was a test session of 5-minute duration. Upon completion of a swim session, each animal was placed under a heat lamp in a cage with soft bedding for approximately 15 minutes to prevent hypothermia.
Animals were pre-treated with a vehicle or test compound after completing the pre-test swim session, then 24 hours later and then shortly prior to the 5-minute test session; i.e., three injections were given to each animal between the two swim sessions that occurred on 3 consecutive days.
(§1) Data were analyzed using GraphPad Prism software (GraphPad Software, Inc. San Diego, Calif.). For the comparison of the effect of different doses for various drugs on immobility in the FST one-way ANOVA was used followed by Dunnett's multiple comparison test. […] The ED50 and Emax values were statistically compared using two-tail t-test.

CH3/HeJ mice = assay: Mouse Tail Suspension Assay (Acute), TST; assay type: in vivo; details: Mus musculus, po, 7 min, p.o., 7-min session
Method: In the tail suspension test (TST) for evaluating compounds for anti-depressant activity, mice are suspended by their tails to a metal or plastic rod using clip or scotch tape. The test is usually quite short, 5-7 min, and the amount of time the mice spend immobile is recorded either manually or with an automated device. Agents which have antidepressant activity, decrease the duration of immobility of mice in this test.
The basic apparatus for the tail suspension assay consisted of a yellow plastic chamber (91×45×10 cm) divided for four arenas 25, 20, 20 and 25 cm wide separated by yellow plastic walls 0.75 cm thick. Mice were suspended by their tails using a rubber clip (7 cm long) attached to the plastic rod that was placed on the top of a testing chamber half way through its deep dimension. Each experimental session was videotaped and analyzed for four animals in the real time by computer software (“Depression Scan” Clever Sys Inc.). The computer justification of immobility was calibrated with the use of animals dosed with lorazepam while justification of movement was calibrated with the high dose of desipramine treated animals. Control, vehicle treated animals and animals treated with Compound #8 were analyzed under the calibrated settings. The settings were adjusted separately for dark (CH3/HeJ and C57Bl/6J strains) and white mice (Balb/cJ and A/J strains). A yellow background was used for dark mice and a blue background was used to record movements of white mice.
The ability of a test compound to decrease the duration of immobility, or increase mobility was measured using the TST procedure described above. Acute treatment with clinically effective antidepressants and/or novel compounds that have potential antidepressant properties decrease the duration of immobility and at the same time increases mobility in the TST.
as §1, with “TST” for “FST”, “analyses of variance (ANOVA) were” for “ANOVA was”, “were” for “were statistically”, “two-way ANOVA and Bonferroni post-hoc test.” for “two-tail t-test.”
Positive controls included duloxetine (DLX), venlafaxine (VLX)and desipramine (DMI) which were dissolved in 0.5% methylcellulose and lorazepam (LOR) which was suspended in 0.5% of methylcellulose in water by sonication. All drugs and vehicles were administered orally (p.o.) by gavage in a volume of 10 mL/kg.
The mice were ordered 5 weeks old and at the beginning of experiment their weight was 20±5 g. Animals were housed in groups of four in plastic cages at an ambient temperature of 21° C. to 23° C. with an automated 12/12 hours light/dark cycle and access to water and a commercial rodent food ad libitum.
Each experiment consisted of seven treatment groups with four animals per group. A total of 28 animals per experiment were used. Every two consecutive experiments (1 & 2, 3 & 4, 5 & 6 and 7 & 8) were exact replicas of each other. […] One treatment group of four animals in each experiment was a vehicle treated group. In addition to the vehicle treated group, the effects of DMI at 6 mg/kg, 12 mg/kg, 30 mg/kg, 60 mg/kg and 120 mg/kg and LOR at 5 mg/kg were tested in experiments 1 and 2. […] In experiments 5 and 6 the effects of DLX at 6 mg/kg, 12 mg/kg, 30 mg/kg, 60 mg/kg, 120 mg/kg and LOR at 5 mg/kg were tested. […]

submissive rats = assay: Dominant-Submissive Relations (DSR) assay: Reduction of Submissive Behavior Model (RSBM) of depression; assay type: in vivo, Male Sprague Dawley rats; details: 10.0 mg/kg i.p.
Method: The DSR assay is divided into two models: Reduction of Dominant Behavior Model (RDBM) of mania and Reduction of Submissive Behavior Model (RSBM) of depression. The RDBM, wherein the dominant animals are treated with test compound, is predictive of the ability of the test compound to treat mania. The RSBM, wherein the submissive animals are treated with test compound, is predictive of the ability of the test compound to treat depression.
Male Sprague Dawley rats (140 to 160 g) from Charles River Laboratories Wilmington, Mass. were used in this assay. Shipments of rats were received at two-week intervals. Each shipment went through five-day quarantine, one-week acclimation period, and one-week selection process, followed by five-weeks of drug or vehicle treatment to those pairs selected.
Rats were housed four per cage. Access to food was restricted to one hour per day after testing on Monday through Thursday. After testing on Friday, rats had free access to food until being fasted again on Sunday. At no time were the rats deprived of water. The food deprivation periods used had little effect on weight gain as the average weight of rats was about 300 g at the end of the study. At the conclusion of experiment rats were sacrificed by decapitation, the trunk blood and brains were collected for in vitro experiments and drug concentration measurements.
The basic testing apparatus consisted of two chambers connected with a tunnel only large enough to allow one rat to pass through at a time. On the floor, at the mid-point of the tunnel was a container of sweetened milk. This basic apparatus was replicated, so that a total of four pairs of rats can be video tracked simultaneously. The camera can distinguish rats marked by different colors. Thus, the rats' heads were colored for the purpose of video tracking, red in one cage and yellow in the other cage. Only one animal at a time can have comfortable access to the feeder, but both animals can drink milk during the five-minute daily session. During the five-minute daily sessions, time spent in the feeder zone by each rat was recorded by the video tracking software and saved into a text file.
The test began with a random assignment of rats into pairs. Each member of a pair was placed in an opposite chamber of the testing apparatus. The time spent in the feeder zone by each animal was recorded. During the first week (five days) of testing the animals habituate to the new environment. Dominance was assigned to the animal with the highest score during the second week of testing if three criteria were achieved. First, there must have been a significant difference (two-tailed t-test, P<0.05) between the average daily drinking scores of both animals. Second, the dominant animal score must have been at least 25% greater than the submissive animal's score. Finally, there must have been no “reversals” during the pair selection week where the putative submissive rat out-scored its dominant partner on isolated occasions. Ideally there were minimal reversals during the acclimation week as well. About twenty-five to thirty-three percent of the initial animal pairs achieved these criteria and only these pairs were continued in the study.
Significant differences between time spent on the feeder by dominant and submissive rats were determined by ANOVA using GraphPad Prism software (GraphPad Software, Inc. San Diego, Calif.) followed by a two-tailed t-test (P<0.05). Comparisons were made between treatment groups using normalized dominance level values in paired animals. The dominance level is a value that measures social relation between paired subjects. Dominance level (DL)=FTD−FTS where FTD is the feeder time of dominant rats and FTS is the feeder time of submissive rats. The normalization was conducted according to the formula: Dominance Level (week n in %)=(Dominance Level (week n))/(Dominance Level (week 2) […]

Male Wistar rats = assay: Chronic Mild Stress Model (Chronic), sucrose consumption; assay type: in vivo; details: stressed animals, once daily i.p.
Source text: In the chronic mild stress (CMS) model rats subjected to a variety of mild stressors for a prolonged period of time show, among other behavioural, biochemical and physiological impairments, a substantial decrease in their responsiveness to rewarding stimuli. This deficit is usually monitored by a decrease in the consumption of the 1% sucrose solution, but can also be seen in other tests, such as place preference conditioning or intracranial self-stimulation. Since the subsensitivity to reward appears to reflect anhedonia (inability to experience pleasure), which is a core symptom of major depressive disorders, the CMS procedure may serve as a suitable research tool in studies into the mechanisms of antidepressant action.
Male Wistar rats were brought into the laboratory two months before the start of the experiment. Except as described below, the animals were singly housed with food and water freely available, and were maintained on a 12-h light/dark and in a constant temperature (22±2° C.) and humidity (50±5%) conditions.
The animals were first trained to consume a 1% sucrose solution; training consisted of eight 1 h baseline tests in which sucrose was presented, in the home cage, following 14 h food and water deprivation; the sucrose intake was measured by weighing pre-weighed bottles containing the sucrose solution, at the end of the test. Subsequently, sucrose consumption was monitored, under similar conditions, at weekly intervals throughout the whole experiment.
On the basis of their sucrose intakes in the final baseline test, the animals were divided into two matched groups. One group of animals was subjected to the chronic mild stress procedure for a period of 7 consecutive weeks. Each week of stress regime consisted of: two periods of food or water deprivation, two periods of 45 degree cage tilt, two periods of intermittent illumination (lights on and off every 2 h), two periods of soiled cage (250 ml water in sawdust bedding), one period of paired housing, two periods of low intensity stroboscopic illumination (150 flashes/min), and three periods of no stress. All stressors were 10-14 h of duration and were applied individually and continuously, day and night. Control animals were housed in separate rooms and had no contact with the stressed animals. They were deprived of food and water for the 14 h preceding each sucrose test, but otherwise food and water were freely available in the home cage.
The drugs were administered at approx. 10.00 and the weekly sucrose tests were carried out 24 h following the last drug injections. […]
All results obtained in this study were analyzed by multiple analyses of variance with three between-subjects factors (stress/control, drug treatments and successive sucrose tests). […]

[1] = system: stressed and non-stressed animals; assay: Resident/Intruder Assay (Chronic Social Stress Assay); assay type: in vivo; details: Forced Swim Test, 10 mg/kg p.o.
Source text: The behavioral resident/intruder assay is used to screen compounds for anti-depressant-like activity.

Compound: CNCCCN1c2ccccc2CCc2ccccc21 [DMI, desipramine, reference compound]
- ED50 (Male Sprague Dawley rats; Rattus norvegicus, po, 5 min, p.o., three administrations, 5-minute test session, read-out: ED50 (immobility)): 2 ± 0.1 mg/kg
- Emax (immobility) (Male Sprague Dawley rats; p.o., immobility): 50.0 ± 8.4 s
- ED50 (CH3/HeJ mice; read-out: Immobility ED50): 27.4 mg/kg
- ED50 (CH3/HeJ mice; read-out: Mobility ED50): 24.4 mg/kg

Compound: O=C1Nc2ccc(Cl)cc2C(c2ccccc2Cl)=NC1O (stereo not shown) [Lorazepam, lorazepam, reference compound]
- effect on immobility time (Male Sprague Dawley rats; 1 mg/kg p.o., negative control): no significant effect

Compound: CNCCC(Oc1ccc(C(F)(F)F)cc1)c1ccccc1 (stereo not shown) [fluoxetine, reference compound]
- loss of significant difference between dominant and submissive rats (submissive rats): lost after third week of treatment

Compound: COc1ccc(C(CN(C)C)C2(O)CCCCC2)cc1 (stereo not shown) [Venlafaxine, venlafaxine]
- treatment time until increase in sucrose intake reached statistical significance vs Week 0 (Male Wistar rats): four weeks
- Immobility during 5 min: Week 5 Mean ± SD ([1]; non-stressed): 181.8 ± 27.6
- Immobility during 5 min: Week 5 Mean ± SD ([1]; stressed): 190.4 ± 36.8

Compound: CN(C)CCCN1c2ccccc2CCc2ccccc21 [Imipramine, imipramine, reference compound]
- treatment time until increase in sucrose intake reached statistical significance vs Week 0 (Male Wistar rats): four weeks
